Experimental data reported in the supplement of paper PMC10307832.

Legend:
Test in all cases: relative viability (nuclei count vs DMSO), 5 days (fraction); higher = more cells survive
[1] = compound: CNC(=O)c1ccccc1Sc1ccc2c(/C=C/c3ccccn3)n[nH]c2c1 [Axitinib] + Nc1ncn([C@H]2C[C@H](O)[C@@H](CO)O2)c(=O)n1 [Decitabine] (partner 2 µM)
In short: (§1)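 Five library-drug doses in √10 steps were combined with a fixed anchor-drug dose, or a single drug was given alone, by pin tool to lung cancer cell lines in 1536-well plates the day after seeding. Nuclei were stained and counted after 5 days. Relative viability is the nuclei count in treated wells over that in vehicle wells, taken as the median of duplicate plates.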

[2] = compound: Nc1nc(Nc2ccc3c(c2)CC[C@@H](N2CCCC2)CC3)nn1-c1cc2c(nn1)-c1ccccc1CCC2 [Bemcentinib] + O=C(CCCCCCC(=O)Nc1ccccc1)NO [Vorinostat] (partner 1 µM)
In short: as §1

[3] = compound: Nc1nc(Nc2ccc3c(c2)CC[C@@H](N2CCCC2)CC3)nn1-c1cc2c(nn1)-c1ccccc1CCC2 [Bemcentinib] + CC(=O)c1c(C)c2cnc(Nc3ccc(N4CCNCC4)cn3)nc2n(C2CCCC2)c1=O [Palbociclib] (partner 0.5 µM)
In short: as §1

[4] = compound: CNC(=O)c1ccccc1Sc1ccc2c(/C=C/c3ccccn3)n[nH]c2c1 [Axitinib] + Cc1nc(NC(=O)N2CCC[C@H]2C(N)=O)sc1-c1ccnc(C(C)(C)C(F)(F)F)c1 [Alpelisib] (partner 2 µM)
In short: as §1

Cell Line	relative viability ([1]; first compound 0.005 µM)	relative viability ([1]; first compound 0.01581 µM)	relative viability ([1]; first compound 0.05 µM)	relative viability ([1]; first compound 0.1581 µM)	relative viability ([1]; first compound 0.5 µM)	relative viability ([2]; first compound 0.04 µM)	relative viability ([2]; first compound 0.1265 µM)	relative viability ([2]; first compound 0.4 µM)	relative viability ([2]; first compound 1.265 µM)	relative viability ([2]; first compound 4 µM)	relative viability ([3]; first compound 0.04 µM)	relative viability ([3]; first compound 0.1265 µM)	relative viability ([3]; first compound 0.4 µM)	relative viability ([3]; first compound 1.265 µM)	relative viability ([3]; first compound 4 µM)	relative viability ([4]; first compound 0.005 µM)	relative viability ([4]; first compound 0.01581 µM)	relative viability ([4]; first compound 0.05 µM)	relative viability ([4]; first compound 0.1581 µM)	relative viability ([4]; first compound 0.5 µM)
EKVX	0.366	0.315	0.344	0.334	0.396	0.509	0.815	0.726	0.701	0.79	0.333	0.362	0.427	0.427	0.405	1.06	0.82	0.838	0.87	1
HCC-44	0.974	0.919	0.937	0.956	0.872	1.15	1.2	1.05	1.13	1.08	1.02	1.03	0.96	1.01	1.1	0.842	0.881	0.873	0.834	0.89
NCI-H1651	0.576	0.579	0.611	0.619	0.594	0.532	0.557	0.569	0.476	0.613	0.528	0.542	0.528	0.576	0.512	1.03	0.944	0.971	0.937	1.12
COR-L23	0.504	0.454	0.419	0.511	0.397	0.468	0.47	0.522	0.477	0.521	0.304	0.316	0.275	0.382	0.31	0.77	0.857	0.78	0.83	1.06
